Test results: patent US20070185055A1, “Method for treating cachexia with retinoid ligands” (priority 2006, published 2007)

Tests used:
[1] = tested on: nude mice bearing H292 xenografts (non-small cell lung cancer cells H292); assay: Cachexia in nude mice bearing H292 xenografts; type: in vivo; conditions: for body weight of the animals: s.c. H292 xenograft
Excerpt: FIGS. 1-5 comprise charts or graphs disclosing the results of tests obtained with experimental animals that have been inoculated with a xenograft of non-small cell lung cancer cells H292 or with small cell lung cancer cells H446, and which were then orally administered the RXR agonist Compound 1 referred to above. […]
Specifically, in the experiment shown in FIG. 1 nude mice were subcutaneously transplanted with non-small cell lung cancer cells H292. A group of the animals was given a daily oral dose of 10 mg per kilogram body weight of Compound 1 in a suitable pharmaceutically acceptable vehicle. A group of the control animals was given the vehicle only.
In the experiment shown in FIG. 4 the right gastrocnemius muscle of the control animals and of the animals treated with Compound 1 in a daily dose of 10 mg/kg, as described in connection with FIG. 1, was weighed after the animals had been sacrificed.
In the experiment shown in FIG. 5, the food intake of nude mice with and without H292 xenografts was evaluated. Mice with H292 xenografts had reduced appetite compared with normal control. […] Therefore, adminstration of Compound 1 reverses poor appetite in cachectic animals. […]

[2] = tested on: SCID mice transplanted with small cell lung cancer cells H446; assay: Cachexia in SCID mice bearing metastatic H446 tumors; type: in vivo; conditions: daily oral dose 3 mg/kg or 10 mg/kg, versus vehicle only (FIG. 3)
Method: FIGS. 1-5 comprise charts or graphs disclosing the results of tests obtained with experimental animals that have been inoculated with a xenograft of non-small cell lung cancer cells H292 or with small cell lung cancer cells H446, and which were then orally administered the RXR agonist Compound 1 referred to above.
In the experiment shown in FIG. 3, SCID mice were subcutaneously transplanted with small cell lung cancer cells H446. A first group of the animals was given a daily oral dose of 3 mg per kilogram body weight of Compound 1 in a suitable pharmaceutically acceptable vehicle, and a second group was given a daily oral dose of 10 mg per kilogram body weight in the same vehicle. A group of the control animals was given the vehicle only.

AIDS and cancer patients = conditions: cited from earlier work
[3] = patients, J. Clin. Oncol., 20: 567 (2002)
[4] = AIDS as well as cancer patients, literature

Q: Which “weight of the right gastrocnemius muscle” value ([1]; H292 xenograft mice, 62 days after transplantation, daily dose 10 mg/kg, versus control (FIG. 4)) does the source give for `CC(/C=C/[C@@H]1C[C@]1(C)c1ccc2c(c1)C(C)(C)CCC2(C)C)=C\C(=O)O` [Compound 1] here?
A: prevents muscle wasting

Q: And the average food intake ([1]; nude mice with H292 xenografts, daily dose 10 mg/kg, compared with normal mice (FIG. 5))?
A: equal amount of food intake as normal mice

Q: And the percentage of survival ([1]; nude mice, H292 xenograft, daily oral dose 10 mg/kg, versus vehicle (FIG. 2))?
A: significantly better survival rate

Q: What about the “body weight of the animals” value ([1]; nude mice, daily oral dose 10 mg/kg, versus vehicle only (FIG. 1)) of the same compound?
A: significantly greater body weights

Q: What about the “body weight of the animals” value [2] of the same compound?
A: significantly greater body weights

Q: With `CCC[C@]1(c2ccc3c(c2)C(C)(C)CCC3(C)C)C[C@H]1/C=C/C(C)=C/C(=O)O` [Compound 2] as the compound, how does the average food intake ([1]; nude mice bearing H292 xenografts, daily dose 50 mg/kg, versus vehicle (FIG. 7)) read?
A: significantly larger food intake

Q: And the “body weight of the animals” value ([1]; nude mice, daily oral dose 50 mg/kg, versus vehicle only (FIG. 6))?
A: significantly greater body weights

Q: What does the source list for `CCCCCc1cc(O)c2c(c1)OC(C)(C)[C@@H]1CCC(C)=C[C@@H]21` [Dronabinol]?
A: appetite (AIDS and cancer patients; [3]): improved appetite; mood and body weight improvement (AIDS and cancer patients; [3]): no effect

Q: What does the source list for `CC(=O)O[C@]1(C(C)=O)CC[C@H]2[C@@H]3C=C(C)C4=CC(=O)CC[C@]4(C)[C@H]3CC[C@@]21C` [Megestrol acetate]?
A: body weight gain (AIDS and cancer patients; [4]): at least five pounds; primary body component that increased (AIDS and cancer patients; [4]): fat, but not lean body mass

Q: Which body weight (AIDS and cancer patients; patients, literature, for Oxandrolone might have represented primary edema) does the source give for `C[C@]12COC(=O)C[C@@H]1CC[C@@H]1[C@@H]2CC[C@@]2(C)[C@H]1CC[C@]2(C)O` [Oxandrolone] here?
A: moderate increase of body weight
